The results in this text go back to patent publication US20100137388A1, “Therapeutic Pro-Antibiotic Agents and Methods of Use Thereof” (priority 2007, published 2010).

Data set [1] concerns E. coli D22 mutant strain. In words: Antibiotic MIC, NCCLS M7-A6 broth microdilution. The data set is classed as cell-based. Particulars: range tested 1 μM-2 mM. How it is done:
(§1) Susceptibilities to the compounds were determined using the National Committee for Clinical Laboratory Standards (NCCLS) M7-A6 broth microdilution method. Cation-adjusted Mueller-Hinton broth (Ca^2+, 25 μg/mL; Mg^2+, 12.5 μg/mL) microdilution panels were prepared to contain antimicrobial doubling dilution concentrations of an appropriate range. DMSO (dimethylsulfoxide) controls were incorporated into the panel to mimic the quantity of DMSO used in dissolving some of the compounds at the higher concentrations. Each final panel well volume was 100 μL with a bacterial inoculum of 5×10^5 CFU (colony forming units)/mL. Panels were read following 16 to 20 h of incubation at 35 degrees Celsius in ambient air. The MIC (minimum inhibitory concentration) was defined as the lowest concentration of antimicrobial inhibiting visible growth.
(§2) Procedure followed was as described above, with the appropriate range being 1 μM-2 mM and using the E. coli D22 mutant strain and the E. coli K12 wild type strain. Value recorded was the lowest concentration of compound needed to produce the bactericidal or bacteriostatic effect (lower is better): […]

Another data set addresses E. coli LpxA (Escherichia coli, UniProt P0A722). In words: LpxA enzyme inhibition (TLC of radiolabeled UDP-GlcNAc acylation). The data set is classed as biochemical. Particulars: percentage of control, lower is better; for % LpxA activity (500 μM) / remaining activity at 500 µM (stock): test compound dilution 500 μM; for % LpxA activity (5 mM) / remaining activity at 5000 µM (stock): test compound dilution 5 mM. How it is done: Measurement of LpxA activity was based on increased mobility of radiolabeled UDP-N-acetyl-D-glucosamine on thin layer chromatography (TLC) plates upon acylation. One μl of test compound of appropriate dilution in ethanol was mixed with 2.5 μM β-hydroxy-myristoyl-ACP and 0.5 μM E. coli LpxA in 1% bovine serum albumin and 40 mM Na-Hepes (pH 8.0) at room temperature (total volume 8 μl). The reaction was initiated by adding 2 μl of UDP-[^3H]N-acetyl-D-glucosamine and aliquots were removed at various time intervals and spotted directly on silica gel G plates.
The procedure as given above was followed, with the appropriate dilutions of test compound being 5 mM and 500 μM.

Data set [2] concerns E. coli K12 wild type strain. In words: Antibiotic MIC, NCCLS M7-A6 broth microdilution. The data set is classed as cell-based. Particulars: range tested 1 μM-2 mM. How it is done: as §1, §2
For the next data set, the system named is mice. To be noted: mouse, in vivo.
Data set [3] concerns E. coli K12 wild type strain. In words: Pro-antibiotic MIC of antibiotic agents alone and with DNM0195. The data set is classed as cell-based. To be noted: antibiotic agent alone. How it is done:
as §1, with “DMSO (dimethylsulfoxide) controls were incorporated into the panel to mimic the quantity of DMSO used in dissolving some of the compounds at the higher concentrations.” left out
Following Example 24, MICs of various antibiotic agents were determined against the E. coli K12 wild type strain, using the same procedure with the appropriate range for each antibiotic. For erythromycin, gentamicin, and kanamycin, this range was 0.24 μg/mL-500 μg/mL. Parallel to this effort, solutions were prepared which were identical. To each of these were added 0.5 μL of DNM0195 stock solution and mixed to produce a final concentration of 500 μM for determination of pro-antibiotic activity.

Where [4] appears, read: Escherichia coli, read-out: MIC.

Values after ≈ are worked out from the molar mass of the structure shown.

E. coli LpxA, sequence (P0A722 whole entry): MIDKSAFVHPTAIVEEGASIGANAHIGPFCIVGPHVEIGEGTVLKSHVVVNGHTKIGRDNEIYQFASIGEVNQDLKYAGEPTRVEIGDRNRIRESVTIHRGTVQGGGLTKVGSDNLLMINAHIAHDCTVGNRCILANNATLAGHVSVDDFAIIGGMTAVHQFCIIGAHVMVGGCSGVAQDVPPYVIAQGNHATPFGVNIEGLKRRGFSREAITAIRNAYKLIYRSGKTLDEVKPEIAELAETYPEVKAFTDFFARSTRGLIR

For the compound `COC(=O)/C=C/c1cc(-c2nnn[nH]2)c(Cc2ccccc2)s1` [DNM0194, (Z) and (E)-methyl 3-(5-benzyl-4-(1H-tetrazol-5-yl)thiophen-2-yl)acrylate], the MIC in data set [1] was in the range of 1 to 2 mM. Further, on E. coli LpxA, the “% LpxA activity (500 μM)” value was determined as 36.0% and the “% LpxA activity (5 mM)” value came out at 1.4%.
For `O=C(O)/C=C/c1cc(-c2nnn[nH]2)c(Cc2ccccc2)s1` [DNM0195, (Z) and (E)-3-(5-benzyl-4-(1H-tetrazol-5-yl)thiophen-2-yl)acrylic acid], the MIC in data set [1] is 1 mM (≈ 312 µg/mL); in data set [2], 1 to 2 mM. For the same compound, in the data set on mice, the Liver biopsies result is on record as “normal”. For the same compound, the “% LpxA activity (500 μM)” value on E. coli LpxA is 7.6%. The “% LpxA activity (5 mM)” value at E. coli LpxA is on record as 3.1%.
`Cn1nnnc1-c1cc(/C=C/C(=O)O)sc1Cc1ccccc1` [DNM0196, (E)-3-(5-benzyl-4-(1-methyl-1H-tetrazol-5-yl)thiophen-2-yl)acrylic acid]: on E. coli LpxA, the remaining activity at 500 µM (stock) was 43.9% and the remaining activity at 5000 µM (stock) came out at 5.8%.
As to `Cn1nnc(-c2cc(/C=C/C(=O)O)sc2Cc2ccccc2)n1` [DNM0197, (E)-3-(5-benzyl-4-(2-methyl-2H-tetrazol-5-yl)thiophen-2-yl)acrylic acid], on E. coli LpxA, the remaining activity at 500 µM (stock) amounted to 62.4% and the remaining activity at 5000 µM (stock) is 20.2%.
On the same counts, the results for `O=C(O)/C=C/c1cc(-c2nnn[nH]2)c(-c2ccc(F)cc2)s1` [DNM0224, (E)-3-(5-(4-fluorophenyl)-4-(1H-tetrazol-5-yl)thiophen-2-yl)acrylic acid] are 88.7% and 37.9%.
Consider `O=C(O)/C=C/c1cc(-c2nnn[nH]2)c(-c2ccc(-c3ccccc3)cc2)s1` [DNM0225, (E)-3-(5-(4-biphenylyl)-4-(1H-tetrazol-5-yl)thiophen-2-yl)acrylic acid], for which, at E. coli LpxA, the remaining activity at 500 µM (stock) came to 84.9% and the remaining activity at 5000 µM (stock) amounted to 7.3%.
On the same counts, the results for `COC(=O)/C=C/c1cc(-c2nnn(C)n2)c(Cc2ccccc2)s1` [DNM0226, (E)-methyl 3-(5-benzyl-4-(2-methyl-2H-tetrazol-5-yl)thiophen-2-yl)acrylate] are 97% and 93%.
Regarding `COC(=O)/C=C/c1cc(-c2nnnn2C)c(Cc2ccccc2)s1` [DNM0227, (E)-methyl 3-(5-benzyl-4-(1-methyl-1H-tetrazol-5-yl)thiophen-2-yl)acrylate], on E. coli LpxA, the remaining activity at 500 µM (stock) was found to be 92.1% and the remaining activity at 5000 µM (stock) was 86.6%.
On the same counts, the results for `COC(=O)/C=C/c1sc(-c2ccc(F)cc2)cc1-c1nnn[nH]1` [DNM0229, (E)-methyl 3-(5-(4-fluorophenyl)-3-(1H-tetrazol-5-yl)thiophen-2-yl)acrylate] are 57.8% and 4%.
On the same counts, the results for `Cn1nnnc1-c1cc(-c2ccc(F)cc2)sc1/C=C/C(=O)O` [DNM0233, (E)-3-(5-(4-fluorophenyl)-3-(1-methyl-1H-tetrazol-5-yl)thiophen-2-yl)acrylic acid] are 98.8% and 47.3%.
Taken in the same sequence, the figures for `COC(=O)/C=C/c1cc(-c2nnn[nH]2)c(-c2cccc3ccccc23)s1` [DNM0234, (E)-methyl 3-(5-(naphthalen-1-yl)-4-(1H-tetrazol-5-yl)thiophen-2-yl)acrylate] were 92.1% and 1.1%.
In the case of `O=C(O)/C=C/c1cc(-c2nnn[nH]2)c(-c2cccc3ccccc23)s1` [DNM0235, (E)-3-(5-(naphthalen-1-yl)-4-(1H-tetrazol-5-yl)thiophen-2-yl)acrylic acid], at E. coli LpxA, the remaining activity at 500 µM (stock) was determined as 59.6% and the remaining activity at 5000 µM (stock) came out at 7.3%.
Regarding `COC(=O)/C=C/c1sc(-c2ccc(-c3ccccc3)cc2)cc1-c1nnn[nH]1` [DNM0240, (E)-methyl 3-(5-(4-biphenyl)-3-(1H-tetrazol-5-yl)thiophen-2-yl)acrylate], on E. coli LpxA, the “% LpxA activity (500 μM)” value is 90.7% and the “% LpxA activity (5 mM)” value worked out at 6.6%.
For the compound `COC(=O)/C=C/c1sc(Cc2ccccc2)cc1-c1nnn[nH]1` [DNM0243, (E)-methyl 3-(5-benzyl-3-(1H-tetrazol-5-yl)thiophen-2-yl)acrylate], at E. coli LpxA, the remaining activity at 500 µM (stock) was determined as 69.2% and the remaining activity at 5000 µM (stock) stood at 0.9%.
On the same counts, the results for `O=C(O)/C=C/c1sc(-c2ccc(-c3ccccc3)cc2)cc1-c1nnn[nH]1` [DNM0245, (E)-3-(5-(biphenyl-4-yl)-3-(1H-tetrazol-5-yl)thiophen-2-yl)acrylic acid] are 78.5% and 4.4%.
With `O=C1NC(=O)C(=Cc2sc(Cc3ccccc3)cc2-c2nnn[nH]2)S1` [DNM0246, 5-((5-benzyl-3-(1H-tetrazol-5-yl)thiophen-2-yl)methylene)thiazolidine-2,4-dione], at E. coli LpxA, the remaining activity at 500 µM (stock) came to 165% and the remaining activity at 5000 µM (stock) was 10.3%.
Taken in the same sequence, the figures for `O=C(O)/C=C/c1cc(-c2nnn(CCC(=O)O)n2)c(Cc2ccccc2)s1` [DNM0252, (E)-3-(5-benzyl-4-(2-(2-carboxyethyl)-2H-tetrazol-5-yl)thiophen-2-yl)acrylic acid] were 62.9% and 5.1%.
On the same counts, the results for `O=C(O)C(=Cc1cc(-c2nnn[nH]2)c(Cc2ccccc2)s1)C(=O)O` [DNM0264, 2-((5-benzyl-4-(1H-tetrazol-5-yl)thiophen-2-yl)methylene)malonic acid] are 56.8% and 5.4%.
Taken in the same sequence, the figures for `O=C(O)/C=C/c1cccc(Cc2sc(/C=C/C(=O)O)cc2-c2nnn[nH]2)c1` [DNM0270, (E)-3-(3-((5-((E)-2-carboxyvinyl)-3-(1H-tetrazol-5-yl)thiophen-2-yl)methyl)phenyl)acrylic acid] were 89.7% and 3%.
As for `CC[C@H]1OC(=O)[C@H](C)[C@@H](O[C@H]2C[C@@](C)(OC)[C@@H](O)[C@H](C)O2)[C@H](C)[C@@H](O[C@@H]2O[C@H](C)C[C@H](N(C)C)[C@H]2O)[C@](C)(O)C[C@@H](C)C(=O)[C@H](C)[C@@H](O)[C@]1(C)O` [Erythromycin], the MIC in data set [3] (setting [4]) was found to be 62.5 µg/mL.
Same read-out and setting: under `NC[C@H]1O[C@H](O[C@H]2[C@H](O)[C@@H](O[C@H]3O[C@H](CO)[C@@H](O)[C@H](N)[C@H]3O)[C@H](N)C[C@@H]2N)[C@H](O)[C@@H](O)[C@@H]1O` [Kanamycin] stands 3.12 µg/mL.
Regarding Gentamicin, the MIC in data set [3] came to 0.39 µg/mL.
